Reference: US20180148418A1, “AMIDO-SUBSTITUTED CYCLOHEXANE DERIVATIVES” (Bayer Pharma Aktiengesellschaft, priority 2015, published 2018)

Tests used:
TNKS2 = biological target: T1, TNKS2 (Homo sapiens, UniProt Q9H2K2); assay: TNKS2 Assay B (auto-parsylation, [3H]-NAD+ SPA); assay type: biochemical; conditions: 6 nM TNKS2, auto-parsylation, over night at room temperature
T1 construct: purchased BPS Bioscience, San Diego, USA 80572 (TNKS2 Histone Ribosylation Assay Kit)
T1 sequence (Q9H2K2 1-1166): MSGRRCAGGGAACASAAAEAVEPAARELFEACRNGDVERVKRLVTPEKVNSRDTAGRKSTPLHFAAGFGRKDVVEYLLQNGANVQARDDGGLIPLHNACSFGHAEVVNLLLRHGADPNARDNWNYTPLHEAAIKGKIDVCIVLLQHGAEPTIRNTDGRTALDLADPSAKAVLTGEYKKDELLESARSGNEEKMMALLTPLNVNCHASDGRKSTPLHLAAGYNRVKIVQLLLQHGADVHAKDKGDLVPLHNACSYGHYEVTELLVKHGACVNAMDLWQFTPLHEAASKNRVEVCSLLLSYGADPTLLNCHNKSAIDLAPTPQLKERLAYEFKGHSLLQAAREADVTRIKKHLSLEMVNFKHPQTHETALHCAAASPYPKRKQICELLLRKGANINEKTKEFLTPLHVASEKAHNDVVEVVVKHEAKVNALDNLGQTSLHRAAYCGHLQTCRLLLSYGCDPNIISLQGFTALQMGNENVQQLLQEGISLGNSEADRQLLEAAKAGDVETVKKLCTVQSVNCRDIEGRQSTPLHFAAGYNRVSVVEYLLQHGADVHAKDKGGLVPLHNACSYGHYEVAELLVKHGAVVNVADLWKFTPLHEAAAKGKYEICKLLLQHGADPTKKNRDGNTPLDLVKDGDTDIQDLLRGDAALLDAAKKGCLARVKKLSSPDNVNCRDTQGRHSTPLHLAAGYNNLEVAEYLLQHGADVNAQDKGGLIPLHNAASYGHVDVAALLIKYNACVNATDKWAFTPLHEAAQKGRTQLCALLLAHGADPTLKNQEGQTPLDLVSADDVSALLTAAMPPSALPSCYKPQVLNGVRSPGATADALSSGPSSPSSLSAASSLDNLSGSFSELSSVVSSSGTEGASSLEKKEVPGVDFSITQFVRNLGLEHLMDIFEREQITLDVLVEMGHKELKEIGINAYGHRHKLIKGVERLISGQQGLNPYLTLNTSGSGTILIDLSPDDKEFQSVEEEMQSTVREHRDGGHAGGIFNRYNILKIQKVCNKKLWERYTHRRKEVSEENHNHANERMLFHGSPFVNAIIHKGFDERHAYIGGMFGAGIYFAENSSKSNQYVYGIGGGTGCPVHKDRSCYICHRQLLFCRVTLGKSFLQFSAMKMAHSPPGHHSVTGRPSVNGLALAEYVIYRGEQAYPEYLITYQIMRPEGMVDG

[1] = system: wildtype Wnt signaling cascade; assay: HEK293 TOP assay (Super TopFlash luciferase reporter, Wnt-3a stimulated); assay type: cell-based; conditions: Homo sapiens, HEK293, 16 h, HEK293 TOP reporter cells, Wnt3a at EC50, 16 hours
Method in brief: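 HEK293 cells stably carrying Super TopFlash (TOP) run in parallel with FOP cells, 10000/well plated 24 h ahead, stimulated with recombinant human Wnt-3a. Compounds tested 50 μM to 15 nM in 3.16-fold steps in CAFTY buffer pH 7.4 with 2 mM Ca^2+ and 0.01% BSA; luciferase read-out.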

IC50 (TNKS2) | IC50 [1] | Compound
> 10000 nM | 7600 nM | C[C@]1(C(=O)Nc2ccc(F)cc2Cl)CC[C@@H](NC(=O)c2cnn3cccnc23)CC1 [Example 180, N-{cis-4-[(2-chloro-4-fluorophenyl)carbamoyl]-4-methylcyclohexyl}pyrazolo[1,5-a]pyrimidine-3-carboxamide]
> 10000 nM | 9600 nM | CNC(=O)c1[nH]cnc1C(=O)N[C@H]1CC[C@@](C)(C(=O)Nc2ccc(F)cc2Cl)CC1 [Example 181, N^4-{cis-4-[(2-chloro-4-fluorophenyl)carbamoyl]-4-methylcyclohexyl}-N^5-methyl-1H-imidazole-4,5-dicarboxamide]
1000 nM | 190 nM | CNC(=O)c1nc[nH]c1C(=O)N[C@H]1CC[C@]2(CCN(c3ccc(F)cc3Cl)C2=O)CC1 [Example 182, N^5-[(cis)-2-(2-chloro-4-fluorophenyl)-1-oxo-2-azaspiro[4.5]dec-8-yl]-N^4-methyl-1H-imidazole-4,5-dicarboxamide]
400 nM | 210 nM | CC1CN(C(=O)c2nc[nH]c2C(=O)N[C@H]2CC[C@@]3(CCN(c4ccc(F)cc4Cl)C3=O)CC2)CCS(=O)(=O)C1 (stereo partly drawn) [Example 183, N-[(trans)-2-(2-chloro-4-fluorophenyl)-1-oxo-2-azaspiro[4.5]dec-8-yl]-4-[(6-methyl-1,1-dioxido-1,4-thiazepan-4-yl)carbonyl]-1H-imidazole-5-carboxamide]
6.2 nM | 21 nM | CN1CC2(CCN(C(=O)c3nc[nH]c3C(=O)N[C@H]3CC[C@@]4(CCN(c5ccc(F)cc5Cl)C4=O)CC3)C2)C1 [Example 184, N-[(trans)-2-(2-chloro-4-fluorophenyl)-1-oxo-2-azaspiro[4.5]dec-8-yl]-4-[(2-methyl-2,6-diazaspiro[3.4]oct-6-yl)carbonyl]-1H-imidazole-5-carboxamide]
1.7 nM | 6.1 nM | CN1CC2(C1)CN(C(=O)c1nc[nH]c1C(=O)N[C@H]1CC[C@@]3(CCN(c4ccc(F)cc4Cl)C3=O)CC1)C2 [Example 185, N-[(trans)-2-(2-chloro-4-fluorophenyl)-1-oxo-2-azaspiro[4.5]dec-8-yl]-4-[(6-methyl-2,6-diazaspiro[3.3]hept-2-yl)carbonyl]-1H-imidazole-5-carboxamide]
7.4 nM | 2.1 nM | NC(=O)c1nc[nH]c1C(=O)N[C@H]1CC[C@@]2(CCN(c3ccc(F)cc3Cl)C2=O)CC1 [Example 186, N^5-[(trans)-2-(2-chloro-4-fluorophenyl)-1-oxo-2-azaspiro[4.5]dec-8-yl]-1H-imidazole-4,5-dicarboxamide]
4.3 nM | 5.9 nM | CN1CC(NC(=O)c2nc[nH]c2C(=O)N[C@H]2CC[C@@]3(CCN(c4ccc(F)cc4Cl)C3=O)CC2)C1 [Example 187, N^5-[(trans)-2-(2-chloro-4-fluorophenyl)-1-oxo-2-azaspiro[4.5]dec-8-yl]-N^4-(1-methylazetidin-3-yl)-1H-imidazole-4,5-dicarboxamide]
7.1 nM | 1.3 nM | O=C(N[C@H]1CC[C@@]2(CCN(c3ccc(F)cc3Cl)C2=O)CC1)c1nc[nH]c1C(=O)NCC(F)(F)F [Example 195, N^4-[(trans)-2-(2-chloro-4-fluorophenyl)-1-oxo-2-azaspiro[4.5]dec-8-yl]-N^5-(2,2,2-trifluoroethyl)-1H-imidazole-4,5-dicarboxamide]
2.4 nM | 0.74 nM | CNC(=O)c1nc[nH]c1C(=O)N[C@H]1CC[C@@]2(CCN(c3cc(F)c(F)cc3Cl)C2=O)CC1 [Example 196, N^5-[(trans)-2-(2-chloro-4,5-difluorophenyl)-1-oxo-2-azaspiro[4.5]dec-8-yl]-N^4-methyl-1H-imidazole-4,5-dicarboxamide]
2.1 nM | 0.74 nM | CCNC(=O)c1nc[nH]c1C(=O)N[C@H]1CC[C@@]2(CCN(c3cc(F)c(F)cc3Cl)C2=O)CC1 [Example 197, N^5-[(trans)-2-(2-chloro-4,5-difluorophenyl)-1-oxo-2-azaspiro[4.5]dec-8-yl]-N^4-ethyl-1H-imidazole-4,5-dicarboxamide]
3.1 nM | 1.7 nM | CC(C)NC(=O)c1nc[nH]c1C(=O)N[C@H]1CC[C@@]2(CCN(c3cc(F)c(F)cc3Cl)C2=O)CC1 [Example 198, N^5-[(trans)-2-(2-chloro-4,5-difluorophenyl)-1-oxo-2-azaspiro[4.5]dec-8-yl]-N^4-(propan-2-yl)-1H-imidazole-4,5-dicarboxamide]
3 nM | 0.98 nM | O=C(NC1CC1)c1nc[nH]c1C(=O)N[C@H]1CC[C@@]2(CCN(c3cc(F)c(F)cc3Cl)C2=O)CC1 [Example 199, N^5-[(trans)-2-(2-chloro-4,5-difluorophenyl)-1-oxo-2-azaspiro[4.5]dec-8-yl]-N^4-cyclopropyl-1H-imidazole-4,5-dicarboxamide]
2.6 nM | 0.17 nM | O=C(N[C@H]1CC[C@@]2(CCN(c3cc(F)c(F)cc3Cl)C2=O)CC1)c1[nH]cnc1C(=O)N1CC(F)C1 [Example 200, N-[(trans)-2-(2-chloro-4,5-difluorophenyl)-1-oxo-2-azaspiro[4.5]dec-8-yl]-4-[(3-fluoroazetidin-1-yl)carbonyl]-1H-imidazole-5-carboxamide]
2.2 nM | 0.54 nM | O=C(NCC(F)(F)F)c1nc[nH]c1C(=O)N[C@H]1CC[C@@]2(CCN(c3cc(F)c(F)cc3Cl)C2=O)CC1 [Example 201, N^5-[(trans)-2-(2-chloro-4,5-difluorophenyl)-1-oxo-2-azaspiro[4.5]dec-8-yl]-N^4-(2,2,2-trifluoroethyl)-1H-imidazole-4,5-dicarboxamide]
2.9 nM | 0.55 nM | COCCNC(=O)c1nc[nH]c1C(=O)N[C@H]1CC[C@@]2(CCN(c3cc(F)c(F)cc3Cl)C2=O)CC1 [Example 202, N^5-[(trans)-2-(2-chloro-4,5-difluorophenyl)-1-oxo-2-azaspiro[4.5]dec-8-yl]-N^4-(2-methoxyethyl)-1H-imidazole-4,5-dicarboxamide]
480 nM | 25000 nM | CNC(=O)c1nc[nH]c1C(=O)N[C@H]1CC[C@H](C(=O)N(C)c2ccccc2C)CC1 [Example 203, N^4-methyl-N^5-{trans-4-[methyl(2-methylphenyl)carbamoyl]cyclohexyl}-1H-imidazole-4,5-dicarboxamide]
2500 nM | 500 nM | O=C(N[C@H]1CC[C@H](C(=O)Nc2ccc(F)cc2Cl)CC1)c1cnn2ccccc12 [Example 205, N-{trans-4-[(2-chloro-4-fluorophenyl)carbamoyl]cyclohexyl}pyrazolo[1,5-a]pyridine-3-carboxamide]
> 10000 nM | 500 nM | O=C(N[C@H]1CC[C@H](C(=O)Nc2ccc(F)cc2Cl)CC1)c1cnc2ccccn12 [Example 206, N-{trans-4-[(2-chloro-4-fluorophenyl)carbamoyl]cyclohexyl}imidazo[1,2-a]pyridine-3-carboxamide]
3200 nM | 660 nM | Cc1cc(C)n2ncc(C(=O)N[C@H]3CC[C@]4(CCN(c5ccc(F)cc5)C4=O)CC3)c2n1 [Example 208, N-[(cis)-2-(4-fluorophenyl)-1-oxo-2-azaspiro[4.5]dec-8-yl]-5,7-dimethyl pyrazolo[1,5-a]pyrimidine-3-carboxamide]
240 nM | 99 nM | O=C(N[C@H]1CC[C@@]2(CCN(c3ccc(F)cc3)C2=O)CC1)c1cnn2cccnc12 [Example 209, N-[(trans)-2-(4-fluorophenyl)-1-oxo-2-azaspiro[4.5]dec-8-yl]pyrazolo[1,5-a]pyrimidine-3-carboxamide]
92 nM | 280 nM | Cc1cnc2c(C(=O)N[C@H]3CC[C@@]4(CCN(c5ccc(F)cc5)C4=O)CC3)cnn2c1 [Example 210, N-[(trans)-2-(4-fluorophenyl)-1-oxo-2-azaspiro[4.5]dec-8-yl]-6-methylpyrazolo[1,5-a]pyrimidine-3-carboxamide]
